Test results reported in ChEMBL document CHEMBL4196200 (J Med Chem, 2018).

What was measured:
Vasopressin V1a receptor [1] = molecular target: T1, Vasopressin V1a receptor (Homo sapiens, UniProt P37288); experiment: Displacement of [3H]-AVP from human V1A receptor expressed in CHO cell membranes by radioligand binding assay
Target sequence in this assay (P37288 whole entry): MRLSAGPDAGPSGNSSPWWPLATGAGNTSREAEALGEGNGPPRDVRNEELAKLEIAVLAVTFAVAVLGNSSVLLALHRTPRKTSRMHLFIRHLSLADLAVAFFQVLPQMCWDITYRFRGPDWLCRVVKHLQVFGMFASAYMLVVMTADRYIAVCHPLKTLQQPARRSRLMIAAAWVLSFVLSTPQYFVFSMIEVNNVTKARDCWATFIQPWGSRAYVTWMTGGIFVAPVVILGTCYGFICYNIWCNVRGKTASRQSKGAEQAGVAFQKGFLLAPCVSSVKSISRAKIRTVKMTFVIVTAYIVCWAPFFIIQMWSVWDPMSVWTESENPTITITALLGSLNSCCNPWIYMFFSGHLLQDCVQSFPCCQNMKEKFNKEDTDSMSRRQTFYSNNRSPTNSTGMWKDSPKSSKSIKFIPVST

Vasopressin V2 receptor [2] = molecular target: T2, Vasopressin V2 receptor (Homo sapiens, UniProt P30518); experiment: Displacement of [3H]-AVP from human V2 receptor expressed in CHO cell membranes by radioligand binding assay
Oxytocin receptor = molecular target: T3, Oxytocin receptor (Homo sapiens, UniProt P30559); experiment: Displacement of [3H]-AVP from human OXR receptor expressed in CHO cell membranes by radioligand binding assay
T3 sequence (P30559 whole entry): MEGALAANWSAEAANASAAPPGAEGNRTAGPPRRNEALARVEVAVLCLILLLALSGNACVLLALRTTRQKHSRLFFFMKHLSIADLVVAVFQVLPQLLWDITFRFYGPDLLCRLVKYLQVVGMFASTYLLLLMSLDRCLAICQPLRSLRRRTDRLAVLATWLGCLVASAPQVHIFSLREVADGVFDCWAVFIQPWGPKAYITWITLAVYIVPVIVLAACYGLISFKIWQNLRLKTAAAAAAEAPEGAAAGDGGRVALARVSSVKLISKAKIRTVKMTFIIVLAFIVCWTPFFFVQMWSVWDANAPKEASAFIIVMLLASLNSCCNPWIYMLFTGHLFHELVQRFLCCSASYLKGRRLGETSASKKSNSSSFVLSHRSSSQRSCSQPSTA

Vasopressin V1a receptor [3] = molecular target: T1, Vasopressin V1a receptor; experiment: Antagonist activity at human V1A receptor expressed in CHO cells assessed as inhibition of AVP-induced myo-inositol 1-phosphate accumulation by IP-One assay; type: functional, cell-based
Target sequence in this assay (P37288 whole entry, looked up): as the sequence (P37288 whole entry) above

[4] = molecular target: T4, Oxytocin receptor (Homo sapiens) (UniProt P30559); experiment: Antagonist activity at human OTR receptor expressed in CHO cells assessed as inhibition of OT-induced myo-inositol 1-phosphate accumulation at 1 uM by IP-One assay relative to OT; type: functional, cell-based
T4 sequence (whole entry): T3 sequence (P30559 whole entry)

[5] = molecular target: T4, Oxytocin receptor (Homo sapiens); experiment: Agonist activity at human OTR receptor expressed in CHO cells assessed as increase in myo-inositol 1-phosphate accumulation at 1 uM by IP-One assay relative to OT; type: functional, cell-based
Vasopressin V1a receptor [6] = molecular target: T1, Vasopressin V1a receptor; experiment: Agonist activity at human V1A receptor expressed in CHO cells assessed as increase in myo-inositol 1-phosphate accumulation at 1 uM by IP-One assay relative to AVP; type: functional, cell-based
Target sequence in this assay (P37288 whole entry, looked up): as the sequence (P37288 whole entry) above

Vasopressin V2 receptor [7] = molecular target: T2, Vasopressin V2 receptor; experiment: Agonist activity at human V2 receptor expressed in CHO cells assessed as increase in cAMP accumulation by cAMP dynamic 2 assay; type: functional, cell-based
[8] = molecular target: T4, Oxytocin receptor (Homo sapiens); experiment: Antagonist activity at human OTR receptor expressed in CHO cells assessed as inhibition of OT-induced myo-inositol 1-phosphate accumulation by IP-One assay; type: functional, cell-based
Vasopressin V1a receptor [9] = molecular target: T1, Vasopressin V1a receptor; experiment: Antagonist activity at human V1A receptor expressed in CHO cells assessed as inhibition of AVP-induced myo-inositol 1-phosphate accumulation at 1 uM by IP-One assay relative to AVP; type: functional, cell-based
Target sequence in this assay (P37288 whole entry, looked up): as the sequence (P37288 whole entry) above

Homo sapiens [10] = species: Homo sapiens; experiment: Selectivity for human V1a receptor over human V2 receptor
Homo sapiens [11] = species: Homo sapiens; experiment: Selectivity for human OTR receptor over human V2 receptor

T2 sequence (P30518 whole entry): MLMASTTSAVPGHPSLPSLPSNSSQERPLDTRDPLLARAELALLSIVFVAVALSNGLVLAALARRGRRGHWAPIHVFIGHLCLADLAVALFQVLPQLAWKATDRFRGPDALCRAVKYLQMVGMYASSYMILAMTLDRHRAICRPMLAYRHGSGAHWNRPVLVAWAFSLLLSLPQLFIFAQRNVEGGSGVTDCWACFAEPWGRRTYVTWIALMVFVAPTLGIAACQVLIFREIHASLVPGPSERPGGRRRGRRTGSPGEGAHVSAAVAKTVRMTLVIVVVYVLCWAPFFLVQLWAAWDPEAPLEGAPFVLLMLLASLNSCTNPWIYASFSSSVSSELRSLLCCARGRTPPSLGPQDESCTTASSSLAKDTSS

| Compound | Ki (Vasopressin V1a receptor [1]) | Ki (Vasopressin V2 receptor [2]) | Ki (Oxytocin receptor) | Kinact (Vasopressin V1a receptor [3]) | inhibition [4] | Emax [5] | Emax (Vasopressin V1a receptor [6]) | Kact (Vasopressin V2 receptor [7]) | Kinact [8] | inhibition (Vasopressin V1a receptor [9]) | Selectivity ratio (Homo sapiens [10]) | Selectivity ratio (Homo sapiens [11]) |
| --- | --- | --- | --- | --- | --- | --- | --- | --- | --- | --- | --- | --- |
| O=C(c1ccc(Cl)cc1)N1CCCCc2ccccc21 | 556 nM | 507 nM | < 10 nM | 149 nM | 24.1% | < 10% | < 10% |  |  |  |  |  |
| CCCCc1ccc(C(=O)N2CCCCc3ccccc32)cc1 | 28 nM | 52 nM | 37.4 nM | 421 nM |  | < 10% | < 10% | 18 nM | 113 nM |  |  |  |
| O=C(c1ccc(I)cc1)N1CCCCc2ccccc21 | 48 nM | 160 nM | 396 nM | 15 nM | 36% | < 10% | < 10% |  |  |  |  |  |
| Cc1ccn(-c2ccc(C(=O)N3CCCC(O)c4ccccc43)cc2)n1 (stereo not drawn) | 164 nM | 1150 nM | 686 nM |  | 45% |  | < 10% |  |  | 69% | 0.14 | 0.6 |
| CC(=O)Nc1ccc(C(=O)N2CCCCc3ccccc32)cc1 | 1080 nM | > 1000 nM | > 1000 nM | 305 nM | 32% | < 10% | < 10% |  |  |  |  |  |
| C[N+](C)(C)c1ccc(C(=O)N2CCCCc3ccccc32)cc1 | > 1000 nM | > 1000 nM | < 10 nM |  | 19% | < 10% | < 10% |  |  | 15% |  |  |
| CN(C)c1ccc(C(=O)N2CCCCc3ccccc32)cc1 | 82 nM | 468 nM | > 1000 nM | 81 nM |  | < 10% | < 10% | 80 nM | 186 nM |  |  |  |
| Cc1ccn(-c2ccc(C(=O)N3CCCC(O)c4ccccc43)c(Cl)c2)n1 (stereo not drawn) | < 10 nM | 100 nM | 800 nM |  | 28% |  | < 10% | 28 nM |  | 26% | > 100 | 8 |
| O=C(c1ccc(-c2ncccn2)cc1)N1CCCCc2ccccc21 | 573 nM | 334 nM | 340 nM | 177 nM | 30.6% | < 10% | < 10% |  |  |  |  |  |
| Cc1ccn(-c2ccc(C(=O)N3CCCC(N(C)C)c4ccccc43)cc2)n1 (stereo not drawn) | 741 nM | > 1000 nM | 1330 nM |  | 21% |  | < 10% |  |  | 15% | < 0.74 |  |
| Cc1ccn(-c2ccc(C(=O)N3CCCC(=O)c4ccccc43)cc2)n1 | < 10 nM | > 1000 nM | < 10 nM |  |  |  | < 10% |  |  | 19% |  |  |
| Nc1ccc(C(=O)N2CCCCc3ccccc32)cc1 | 734 nM | > 1000 nM | < 10 nM |  | 15% | < 10% | < 10% |  |  | 37% |  |  |
| O=C(c1ccc(Br)cc1)N1CCCCc2ccccc21 | 504 nM | 713 nM | < 10 nM | 218 nM | 20% | < 10% | < 10% |  |  |  |  |  |
| CCCc1ccc(C(=O)N2CCCCc3ccccc32)cc1 | 63 nM | 121 nM | 104 nM | 184 nM |  | < 10% | < 10% | 92 nM | 172 nM |  |  |  |
| Cc1ccn(-c2ccc(C(=O)N3Cc4cnn(C)c4Nc4ccccc43)c(Cl)c2)n1 |  |  |  |  |  |  | < 10% | 8.4 nM |  |  | 0.93 | 0.59 |
| Cc1ccn(-c2ccc(C(=O)N3CCCCCC3)c(Cl)c2)n1 | < 10 nM | < 10 nM | < 10 nM |  | < 10% |  | < 10% |  |  | < 10% |  |  |
| Cc1ccn(-c2ccc(C(=O)N3CCCC(=O)c4ccccc43)c(Cl)c2)n1 | < 10 nM | < 10 nM | < 10 nM |  | 14% |  | < 10% |  |  | < 10% |  |  |
